Experimental data taken from patent US20220218689A1, “T[…] COMPOSITIONS AND METHODS FOR USING THE SAME” (Saniona A/S, priority 2018, published 2022).

Experiments:
[1] = In vitro skin flux study (Franz cell transdermal flux test); format: in vitro ADME, human; details: free base; conclusion from the in vitro skin flux study
Text: Human cadaver skin was used and epidermal layers (stratum corneum and epidermis) were separated from the full-thickness skin as skin membrane. Samples were die-cut with an arch punch to a final diameter of about 2.0 cm^2. The release liner was removed and the system was placed on top of the epidermis/stratum corneum with the drug adhesive layer facing the stratum corneum. Gentle pressure was applied to effect good contact between the adhesive layer and stratum corneum. The donor and receptor sides of the Franz cell were clamped together and the receptor solution containing a phosphate buffer at pH 6.5 was added to the Franz cell. The cells were kept at 33° C. for the duration of the experiment. Samples of the receptor solution were taken at regular intervals and the active agent concentration was measured by HPLC. The removed receptor solution was replaced with fresh solution to maintain the sink conditions. The flux was calculated from the slope of cumulative amounts of the drug in the receiver compartment versus time plot.
Transdermal delivery devices containing various formulations of (1 R,2 R,3 S,5 S)-3-(3,4-dichlorophenyl)-2-(methoxymethyl)-8-azabicyclo[3.2.1]octane (i.e., NS2359) are summarized in Table 1. An in vitro skin flux study was performed as described above with transdermal delivery devices having the formulations listed in Table 1. […]

[2] = Astrup et al., 2008, Lancet 372: 1906-13; cited from earlier work

## COC[C@@H]1[C@@H](c2ccc(Cl)c(Cl)c2)C[C@@H]2CC[C@H]1N2 [NS2359, (1 R,2 R,3 S,5 S)-3-(3,4-dichlorophenyl)-2-(methoxymethyl)-8-azabicyclo[3.2.1]octane]
[1]
  Transdermal deliverability: can be delivered transdermally

## CCOC[C@@H]1[C@@H](c2ccc(Cl)c(Cl)c2)C[C@@H]2CC[C@H]1N2C [Tesofensine, (1 R,2 R,3 S,5 S)-3-(3,4-dichlorophenyl)-2-(ethoxymethyl)-8-methyl-8-azabicyclo[3.2.1]octane]
[2]
  Sagittal diameter: significantly decreases
  Waist circumference: significantly decreases
